Source: article PMC6669600 (Viruses, 2019)

molecular target: N36 (gp41 NHR-derived target mimic peptide) (Human immunodeficiency virus type 1 group M subtype B, UniProt P04578); test: CD spectroscopy of inhibitor complexed with N36; format: binding, HIV-1; conditions: α-helical content of complex, each peptide 10 μM in PBS pH 7.2, 20 C, [θ]222; repeated two times, representative data
Sequence (P04578 546-581): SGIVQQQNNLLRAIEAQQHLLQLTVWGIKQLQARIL

Going from Ac-MTWEEWDKKIEEYTKKIEEL-NH2 [MT-SC18EK] to “Ac-MTWEEWDKKIEEYTKKIEELI-NH2 [MT-SC19EK]”, the “CD data (with N36) Helix (%)” value rises from 56.3% to 84.8%.

First: Ac-MTWEEWDKKIEEYTKKIEELIK-NH2 [MT-SC20EK]
Second: Ac-MTWEEWDKKIEEYTKKIEELIKK-NH2 [MT-SC21EK]
The “CD data (with N36) Helix (%)” value of the first is lower: 82% for the first, 83.9% for the second.

First: Ac-MTWEEWDKKIEEYTKKIEELIKKS-NH2 [MT-SC22EK]
Second: Ac-MTWEEWDKKIEEYTKKIEELIKKSE-NH2 [MT-SC23EK]
The “CD data (with N36) Helix (%)” value of the first is higher: 84.6% for the first, 84.1% for the second.

Going from “Ac-MTWEEWDKKIEEYTKKIEELIKKSEE-NH2 [MT-SC24EK]” to “Ac-MTWEEWDKKIEEYTKKIEELIKKSEEQ-NH2 [MT-SC25EK]”, the “CD data (with N36) Helix (%)” value rises from 83.8% to 84.9%.

Compared with “Ac-MTWEEWDKKIEEYTKKIEELIKKSEEQQ-NH2 [MT-SC26EK]”, “Ac-MTWEEWDKKIEEYTKKIEELIKKSEEQQK-NH2 [MT-SC27EK]” is higher in “CD data (with N36) Helix (%)” value: 85.2% for the first, 87.4% for the second.

First: Ac-MTWEEWDKKIEEYTKKIEELIKKSEEQQKK-NH2 [MT-SC28EK]
Second: Ac-MTWEEWDKKIEEYTKKIEELIKKSEEQQKKN-NH2 [MT-SC29EK]
The “CD data (with N36) Helix (%)” value of the first is lower: 84.5% for the first, 92% for the second.

Going from “Ac-MTWEEWDKKIEEYTKKIEELIKKSEEQQKKNE-NH2 [MT-SC30EK]” to “Ac-MTWEEWDKKIEEYTKKIEELIKKSEEQQKKNEK-NH2 [MT-SC31EK]”, the “CD data (with N36) Helix (%)” value falls from 92.6% to 92.4%.

First: Ac-MTWEEWDKKIEEYTKKIEELIKKSEEQQKKNEKE-NH2 [MT-SC32EK]
Second: Ac-MTWEEWDKKIEEYTKKIEELIKKSEEQQKKNEKEL-NH2 [MT-SC33EK]
The “CD data (with N36) Helix (%)” value of the first is lower: 91.8% for the first, 93.8% for the second.

Going from “Ac-MTWEEWDKKIEEYTKKIEELIKKSEEQQKKNEKELK-NH2 [MT-SC34EK]” to “Ac-MTWEEWDRKIEEYTKKIEELIKKSQNQQEKN-NH2 [MT-WQ-EKN]”, the “CD data (with N36) Helix (%)” value falls from 92% to 90.6%.

Compared with “Ac-MTWEEWDRKIEEYTKKIEELIKKSQNQQIDL-NH2 [MT-WQ-IDL, reference compound]”, Ac-WEEWDKKIEEYTKKIEELI-NH2 [SC19EK] is lower in “CD data (with N36) Helix (%)” value: 86.9% for the first, 80.3% for the second.

Going from Ac-WEEWDKKIEEYTKKIEELIK-NH2 [SC20EK] to Ac-WEEWDKKIEEYTKKIEELIKK-NH2 [SC21EK], the “CD data (with N36) Helix (%)” value rises from 78.8% to 82.8%.

First: Ac-WEEWDKKIEEYTKKIEELIKKS-NH2 [SC22EK]
Second: Ac-WEEWDKKIEEYTKKIEELIKKSE-NH2 [SC23EK]
The “CD data (with N36) Helix (%)” value of the first is higher: 85.5% for the first, 80.7% for the second.

First: Ac-WEEWDKKIEEYTKKIEELIKKSEE-NH2 [SC24EK]
Second: Ac-WEEWDKKIEEYTKKIEELIKKSEEQ-NH2 [SC25EK]
The “CD data (with N36) Helix (%)” value of the first is higher: 79.9% for the first, 78.4% for the second.

First: Ac-WEEWDKKIEEYTKKIEELIKKSEEQQ-NH2 [SC26EK]
Second: Ac-WEEWDKKIEEYTKKIEELIKKSEEQQK-NH2 [SC27EK]
The “CD data (with N36) Helix (%)” value of the first is lower: 83.1% for the first, 85.7% for the second.

Compared with “Ac-WEEWDKKIEEYTKKIEELIKKSEEQQKK-NH2 [SC28EK]”, “Ac-WEEWDKKIEEYTKKIEELIKKSEEQQKKN-NH2 [SC29EK, reference compound]” is higher in “CD data (with N36) Helix (%)” value: 87.7% for the first, 88.9% for the second.

First: Ac-WEEWDKKIEEYTKKIEELIKKSEEQQKKNE-NH2 [SC30EK]
Second: Ac-WEEWDKKIEEYTKKIEELIKKSEEQQKKNEK-NH2 [SC31EK]
The “CD data (with N36) Helix (%)” value of the first is higher: 92.9% for the first, 91.4% for the second.

Compared with “Ac-WEEWDKKIEEYTKKIEELIKKSEEQQKKNEKE-NH2 [SC32EK]”, “Ac-WEEWDKKIEEYTKKIEELIKKSEEQQKKNEKEL-NH2 [SC33EK]” is higher in “CD data (with N36) Helix (%)” value: 93.2% for the first, 94.1% for the second.

Going from “Ac-WEEWDKKIEEYTKKIEELIKKSEEQQKKNEKELK-NH2 [SC34EK, reference compound]” to “Ac-WEEWDRKIEEYTKKIEELIKKSQNQQEKN-NH2 [WQ-EKN]”, the “CD data (with N36) Helix (%)” value falls from 92.6% to 89.5%.

Compared with “Ac-WEEWDRKIEEYTKKIEELIKKSQNQQIDL-NH2 [WQ-IDL, reference compound]”, “Ac-WMEWDREINNYTSLIHSLIEESQNQQEKAEQELL-NH2 [C34N145A]” is lower in “CD data (with N36) Helix (%)” value: 87.8% for the first, 81% for the second.

molecular target: T1, N39 (gp41 NHR-derived target mimic peptide) (Human immunodeficiency virus type 1 group M subtype B, UniProt P04578); test: CD spectroscopy of inhibitor complexed with N39; format: binding, HIV-1; conditions: each peptide 10 μM in PBS, repeated two times, representative data
T1 construct: we further used the NHR-derived peptide N39
T1 sequence (P04578 528-566): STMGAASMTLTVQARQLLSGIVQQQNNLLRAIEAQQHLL

In the case of enfuvirtide, the “α-helical content of complex with N39” value is reported as 53%.
